According to PubChem BioAssay (NCI):
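Following 48 hours of exposure in 96-well plates, responses at five concentrations were used to interpolate endpoints linearly. The concentration for full growth arrest is given as TGI.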

How the values were obtained:
Experiment in all cases: NCI tumour cell line growth inhibition, 48 h
A498 renal = test system: A498 renal
COLO 205 colon = test system: COLO 205 colon
DU-145 prostate = test system: DU-145 prostate
HCC-2998 colon = test system: HCC-2998 colon
HOP-92 NSCLC = test system: HOP-92 NSCLC
IGROV1 ovarian = test system: IGROV1 ovarian
MALME-3M melanoma = test system: MALME-3M melanoma
MDA-N = test system: MDA-N
MOLT-4 leukemia = test system: MOLT-4 leukemia
OVCAR-5 ovarian = test system: OVCAR-5 ovarian
SN12C renal = test system: SN12C renal
SNB-75 CNS = test system: SNB-75 CNS
SR leukemia = test system: SR leukemia
SW-620 colon = test system: SW-620 colon
UACC-257 melanoma = test system: UACC-257 melanoma
UACC-62 melanoma = test system: UACC-62 melanoma
EKVX NSCLC = test system: EKVX NSCLC
NCI-H522 lung = test system: NCI-H522 lung

| Structure (SMILES) | TGI (A498 renal) [µM] | TGI (COLO 205 colon) [µM] | TGI (DU-145 prostate) [µM] | TGI (HCC-2998 colon) [µM] | TGI (HOP-92 NSCLC) [µM] | TGI (IGROV1 ovarian) [µM] | TGI (MALME-3M melanoma) [µM] | TGI (MDA-N) [µM] | TGI (MOLT-4 leukemia) [µM] | TGI (OVCAR-5 ovarian) [µM] | TGI (SN12C renal) [µM] | TGI (SNB-75 CNS) [µM] | TGI (SR leukemia) [µM] | TGI (SW-620 colon) [µM] | TGI (UACC-257 melanoma) [µM] | TGI (UACC-62 melanoma) [µM] | TGI (EKVX NSCLC) [µM] | TGI (NCI-H522 lung) [µM] |
| --- | --- | --- | --- | --- | --- | --- | --- | --- | --- | --- | --- | --- | --- | --- | --- | --- | --- | --- |
| COc1ccc(C(=O)c2sc(N(C)C)nc2-c2ccccc2)cc1 | 93.1 | > 100 | > 100 | 48.5 | > 100 | > 100 | > 100 | 53.8 | > 100 | > 100 | > 100 | 80.1 | > 100 | > 100 | 86.1 | > 100 |  |  |
| COC(=O)C1=C(O)C(C(=O)OC)[C@]2(O)[C@H](C(=O)OC)[C@H]1C[C@@H](c1ccc(Cl)cc1)[C@H]2C(=O)OC (stereo partly specified) | 27.2 | 25.1 | 30.4 | 22 | 73.6 | > 100 | 25.1 | 22.5 | > 100 | 40.3 | 79.6 | 38.7 | > 100 | > 100 | 26.5 | 24.9 | 30.6 |  |
| c1ccc2c(c1)CC1=C(O2)c2ccccc2OC1 | > 100 | 38.3 | > 100 | 42.2 | 95 | > 100 | > 100 | 45.5 | 80.1 | > 100 | 37.4 |  | > 100 | 42.2 | > 100 | 92.8 | 45.7 | 44.5 |
| CCC(C)(C)C1CCC2c3c([nH]c4ccccc34)C3C(=O)N(c4ccc(OC)cc4)C(=O)C3C2C1 (stereo unspecified) |  | 24.7 | 28.9 | 40.5 |  | 90.8 | 63 | 68.6 | 60.8 | 45.6 | 6.67 | 42.2 | 75.3 | > 100 | > 100 | > 100 | > 100 | 20.6 |
| O=C(O)CCCn1nnc2c(=O)[nH][nH]c(=O)c21 |  | > 100 | > 100 | > 100 | > 100 |  | > 100 | > 100 | > 100 | > 100 | > 100 |  | > 100 |  | > 100 |  | > 100 |  |
| C=C1[C@H](OC(C)=O)[C@H]2[C@@H](OC(C)=O)[C@@H](C)C[C@]2(C)C(=O)[C@H](C)/C=C/C(C)(C)C(=O)[C@H](OCC(C)C)[C@H]1OC(C)=O | > 25 | > 25 | > 25 | > 25 | > 25 | > 25 |  | > 25 | > 25 | > 25 | > 25 | > 25 | > 25 | > 25 | > 25 | > 25 | > 25 | > 25 |
| CCOC(=O)c1cc2c([nH]1)c(O)cc1c2ccn1Cc1ccccc1 | 82.4 | 39.8 | 34.3 | 37 | 27.7 | 54.3 | 36.8 | 29.5 | 14.1 | 41.4 | 36.6 | 50.2 | 16.9 | 40.6 | 34.8 | 28.8 | 26.7 |  |
| O=C1N=C(SC2OC(CO)C(O)C(O)C2O)S/C1=C\c1ccccc1 (stereo unspecified) | > 100 |  | > 100 | > 100 |  | > 100 | > 100 | > 100 | > 100 | > 100 | > 100 | > 100 | > 100 | > 100 | > 100 | > 100 |  | > 100 |
| O=c1[nH]c(=O)n(CCOc2ccccc2)cc1Nc1ccccc1 | > 100 | > 100 | > 100 | > 100 | > 100 | > 100 | > 100 | > 100 | > 100 | > 100 | > 100 |  | > 100 | > 100 | > 100 | > 100 | > 100 | > 100 |
| O=C1N[C@H]2c3c(Cl)sc(Cl)c3[C@@H](O)[C@H]2O1 | > 100 | > 100 | > 100 | > 100 |  | > 100 | > 100 | > 100 | > 100 | > 100 | > 100 | > 100 | > 100 | > 100 | > 100 | > 100 | > 100 |  |
| N#CC1C(=O)N(c2ccccc2)NC12OC(=O)c1ccncc12 (stereo unspecified) | > 20 | > 20 | > 20 | > 20 | > 20 | > 20 | > 20 | > 20 | > 20 | > 20 | > 20 |  | > 20 | > 20 | > 20 | > 20 | > 20 | > 20 |
| Cc1cc(S(=O)(=O)Nc2nc(N)n(-c3ccccn3)n2)c(S)cc1Cl | > 100 | > 100 | > 100 | > 100 |  | > 100 | > 100 | > 100 | > 100 | > 100 | > 100 | > 100 | > 100 | > 100 | > 100 | > 100 | > 100 | > 100 |
| COc1cc(/C=C2/SC(c3ccccc3)N(c3ccccc3Cl)C2=O)cc(OC)c1OC (stereo unspecified) | > 100 | 95.5 | > 100 | > 100 | > 100 |  | 64.7 | 69.7 | 68.2 | > 100 | 46.6 |  | 58.9 | > 100 | > 100 | > 100 | > 100 | 32.3 |
| COC(=O)C1=C(O)C(C(=O)OC)[C@]2(O)[C@H](C(=O)OC)[C@H]1C[C@@H](c1ccc(OC)c(OC)c1)[C@H]2C(=O)OC (stereo partly specified) | 54.7 | 66.3 | 93.8 | 27.1 | > 100 | > 100 |  | > 100 | 69.8 | > 100 | > 100 | 46 | 46.6 | > 100 | > 100 | > 100 | > 100 |  |
| CC(=O)c1sc2c(c1OC(=O)c1ccco1)c(=O)n(-c1ccccc1)c(=S)n2-c1ccccc1 |  | 37.9 | 76.9 |  | 22 | 54.2 | 37.9 | 82.6 | 53.8 |  | > 100 | 78.1 | 72.2 | > 100 | 88.7 |  | 59.1 | 39.7 |
| COc1cc(/C=N\N(C)C)cc(/C=N/N(C)C)c1O | > 100 | 46.9 | > 100 |  | 61.8 |  | 56 | > 100 |  |  | 52.7 |  | 32.3 | > 100 | 98.5 | > 100 |  | > 100 |
| CCOCc1c(C)cc(C)c(C2C(C(=O)c3ccccc3)N3c4ccccc4C=CC3C2(C#N)C(=O)OCC)c1C (stereo unspecified) | > 100 | 53.7 | > 100 | 47.8 |  | 46.5 |  | 87 | > 100 | > 100 | > 100 |  | > 100 | > 100 | > 100 | > 100 | 67.3 |  |
| CC1(C)C2CCC(CN)(C2)C1N (stereo unspecified) | > 100 | > 100 | > 100 | > 100 | > 100 | > 100 | > 100 | > 100 | > 100 | > 100 | > 100 | > 100 | > 100 | > 100 | > 100 | > 100 | > 100 |  |
| O=C1CSSCC(=O)Nc2ccccc2N1 | > 100 | > 100 | > 100 |  | > 100 | > 100 | > 100 | > 100 | > 100 | > 100 | > 100 |  | > 100 | > 100 | > 100 | > 100 | > 100 | > 100 |
| OC1(c2ccc(Cl)cc2)C(N2CCCC2)c2ccccc2C2=NCCN21 (stereo unspecified) | 60.9 | 23.9 | > 100 |  | 62.9 | 52.7 | 36.9 | 51.4 | 93.8 | > 100 | > 100 |  | 41.1 | > 100 | 40.6 | 41.3 | > 100 |  |
| Nc1cccnc1NCC1(CO)CCCC1 | > 100 | > 100 | > 100 | > 100 |  | > 100 | > 100 | > 100 | > 100 | > 100 | > 100 | > 100 | > 100 | > 100 | > 100 | > 100 | > 100 | > 100 |
| Cc1ccc([N+](=O)[O-])cc1S(=O)(=O)Nc1ccc(C2=NN(c3ccc([N+](=O)[O-])cc3[N+](=O)[O-])C(c3cccs3)C2)cc1 (stereo unspecified) |  | 54.5 | > 100 |  | 84.6 | 53.7 | 94.7 | 31.4 | 53.3 | > 100 | 34.1 | 81.3 | 58.6 | > 100 | 42.1 |  | 59.2 | 39 |
| CCOC(=O)c1c(NC(=O)c2cccs2)sc2c1CCC2 | > 100 | > 100 | > 100 |  |  | > 100 |  | > 100 | > 100 | > 100 | > 100 | 26.2 | > 100 |  | > 100 | > 100 | > 100 |  |
| NCCCCC(NC(=O)C(N)Cc1ccc(O)cn1)C(=O)O (stereo unspecified) | > 100 | > 100 | > 100 | > 100 | > 100 | > 100 | > 100 | > 100 | > 100 | > 100 | > 100 |  | > 100 | > 100 | > 100 |  | > 100 | > 100 |
| COC(=O)CC(c1cn(S(=O)(=O)c2ccc(C)cc2)c2ccccc12)C1C[C@@H](C(=O)OC)N(C(=O)OC(C)(C)C)C1=O (stereo partly specified) | > 100 | 86.6 | > 100 |  |  | > 100 | > 100 | > 100 | 21 | > 100 | > 100 | > 100 | 10.4 | > 100 | > 100 | > 100 | > 100 | > 100 |
| O=C1CCC2(c3ccccc3)Nc3ccncc3N12 (stereo unspecified) |  |  | > 10 |  | > 10 |  | > 10 | > 10 | > 10 | > 10 | > 10 | > 10 | > 10 | > 10 | > 10 | > 10 | > 10 | > 10 |
| CC(C)(C)/C(=N\Nc1nc2ccccc2[nH]1)c1ccccn1 | > 100 | > 100 | > 100 |  | > 100 | > 100 | 61.5 | > 100 | > 100 |  | > 100 |  | > 100 | > 100 | > 100 | > 100 |  | > 100 |
| CN(C)c1ccc(/C=C2/NC(=S)NC2=O)cc1 |  | > 100 | > 100 | > 100 | > 100 | > 100 | > 100 | > 100 | > 100 | > 100 | > 100 | > 100 | > 100 | > 100 | > 100 | > 100 | > 100 | > 100 |
| Cc1cc(C)c2c(O)c(S(=O)(=O)c3ccc(Cl)cc3)c(=O)oc2c1 | > 100 | > 100 | > 100 |  | > 100 | > 100 | > 100 | > 100 |  | > 100 | > 100 | > 100 | > 100 | > 100 | > 100 | > 100 | 93 |  |
